Experiment in all cases: Kinase profiling in a biochemical assay panel (mobility shift assays and ELISA), %-inhibition at 1 μM; selectivity entropy
A general note: ELISA stands for enzyme-linked immunosorbent assay.

Test [1] addresses panel of more than 300 wild-type and mutant kinases (313 kinase panel) (Homo sapiens, UniProt P00519).
For test [2], the target named is panel of more than 300 wild-type and mutant kinases (313 kinase panel) (Homo sapiens, UniProt P00519, E255K).
In test [3] the target is panel of more than 300 wild-type and mutant kinases (313 kinase panel) (Homo sapiens, UniProt P00533). The conditions noted are these: kinase EGFR; compound at 1 μM.
In test [4] the target is panel of more than 300 wild-type and mutant kinases (313 kinase panel) (Homo sapiens, UniProt P00533, L858R). The conditions noted are these: kinase EGFR(L858R); compound at 1 μM.
For test [5], the target named is panel of more than 300 wild-type and mutant kinases (313 kinase panel) (Homo sapiens, UniProt P00533, L858R/T790M). The conditions noted are these: kinase EGFR(T790M/L858R); compound at 1 μM.
Test [6] addresses panel of more than 300 wild-type and mutant kinases (313 kinase panel) (Homo sapiens, UniProt P00533, T790M). The conditions noted are these: kinase EGFR(T790M); compound at 1 μM.
The target in test [7] is panel of more than 300 wild-type and mutant kinases (313 kinase panel) (Homo sapiens, UniProt P07947, T348I).
Test [8] addresses panel of more than 300 wild-type and mutant kinases (313 kinase panel) (Homo sapiens, UniProt P09619). The conditions noted are these: kinase PDGFRβ; 1 μM.
Test [9] addresses panel of more than 300 wild-type and mutant kinases (313 kinase panel) (Homo sapiens, UniProt P11362, V561M). The conditions noted are these: kinase FGFR1(V561M); compound at 1 μM.
Test [10] has as its target panel of more than 300 wild-type and mutant kinases (313 kinase panel) (Homo sapiens, UniProt P15056). The conditions noted are these: kinase BRAF; 1 μM compound.
In test [11] the target is panel of more than 300 wild-type and mutant kinases (313 kinase panel) (Homo sapiens, UniProt P15056, V600E). The conditions noted are these: kinase BRAF(V600E); 1 μM compound.
Test [12] deals with panel of more than 300 wild-type and mutant kinases (313 kinase panel) (Homo sapiens, UniProt Q15418). The conditions noted are these: kinase RSK1; 1 μM.
Test [13] has as its target panel of more than 300 wild-type and mutant kinases (313 kinase panel) (Homo sapiens, UniProt Q9UM73, R1275Q).
The target of test [14] is panel of more than 300 wild-type and mutant kinases (313 kinase panel) (Homo sapiens, UniProt P35968). The conditions noted are these: kinase KDR; compound at 1 μM.
Test [15] concerns the target T1, panel of more than 300 wild-type and mutant kinases (313 kinase panel) (Homo sapiens, UniProt Q06418).
T1 sequence (Q06418 41-890): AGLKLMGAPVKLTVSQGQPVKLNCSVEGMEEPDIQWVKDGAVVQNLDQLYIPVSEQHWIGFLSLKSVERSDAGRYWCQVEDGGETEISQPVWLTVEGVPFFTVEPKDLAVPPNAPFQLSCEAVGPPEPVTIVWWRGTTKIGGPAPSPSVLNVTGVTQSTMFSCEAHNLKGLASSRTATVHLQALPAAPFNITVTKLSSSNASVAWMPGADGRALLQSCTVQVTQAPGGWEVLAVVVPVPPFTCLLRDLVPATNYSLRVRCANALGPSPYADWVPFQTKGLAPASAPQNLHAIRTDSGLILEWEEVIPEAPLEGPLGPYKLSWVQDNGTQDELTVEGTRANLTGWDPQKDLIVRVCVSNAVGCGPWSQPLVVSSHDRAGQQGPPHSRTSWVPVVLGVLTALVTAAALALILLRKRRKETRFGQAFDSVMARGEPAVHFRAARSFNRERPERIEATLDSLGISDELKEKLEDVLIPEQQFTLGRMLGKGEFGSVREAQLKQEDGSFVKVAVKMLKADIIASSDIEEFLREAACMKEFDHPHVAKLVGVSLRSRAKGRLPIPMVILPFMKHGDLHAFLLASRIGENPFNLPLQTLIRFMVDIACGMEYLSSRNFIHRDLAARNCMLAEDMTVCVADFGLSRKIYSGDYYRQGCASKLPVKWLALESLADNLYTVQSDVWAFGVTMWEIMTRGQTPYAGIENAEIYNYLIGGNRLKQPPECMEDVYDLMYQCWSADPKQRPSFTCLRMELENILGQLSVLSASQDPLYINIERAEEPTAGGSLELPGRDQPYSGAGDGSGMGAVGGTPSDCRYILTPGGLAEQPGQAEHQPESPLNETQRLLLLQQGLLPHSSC
The conditions noted are these: kinase TYRO3; compound at 1 μM.

Where [16] appears, read: kinase ABL(E255K), 1 μM compound.
[17] abbreviates: kinase YES(T348I), compound at 1 μM.
Setting [18] is: kinase ALK(R1275Q), 1 μM compound.

For the molecule `COc1cc2nccc(Oc3ccc(NC(=O)C4(C(=O)Nc5ccc(F)cc5)CC4)cc3)c2cc1OC` [cabozantinib], the “%-inhibition, ABL” value in test [1] (kinase ABL, 1 μM compound) stood at 56%. Further, the “%-inhibition, ABL(E255K)” value in test [2] (setting [16]) was found to be 25%. In test [3], the “%-inhibition of EGFR” value came out at 54%. Moreover, the “%-inhibition of EGFR(L858R)” value in test [4] worked out at 30%. In addition, the “%-inhibition of EGFR(T790M/L858R)” value in test [5] stood at 29%. The “%-inhibition of EGFR(T790M)” value in test [6] was 32%. Also, the “%-inhibition of YES(T348I)” value in test [7] (setting [17]) came out at 67%. Besides, in [8], the “%-inhibition of PDGFRβ” value was determined as 84%. In addition, the “%-inhibition of FGFR1(V561M)” value in test [9] was -2.45%. In addition, the “%-inhibition, BRAF” value in test [10] is listed as 25%. The “%-inhibition, BRAF(V600E)” value in test [11] was found to be 37%. The “%-inhibition of RSK1” value in test [12] was -7.61%. In addition, the “%-inhibition, ALK(R1275Q)” value in [13] (setting [18]) is given as 79%.

Turning to `O=S(=O)(c1cccc2cnccc12)N1CCCNCC1` [fasudil], the “%-inhibition, ABL” value in test [1] (kinase ABL, 1 μM compound) was -8%. The “%-inhibition, ABL(E255K)” value in [2] (setting [16]) is on record as -3%. Moreover, the “%-inhibition of YES(T348I)” value in test [7] (setting [17]) stood at 6%. Moreover, in test [8], the “%-inhibition of PDGFRβ” value is listed as 12%. The “%-inhibition of FGFR1(V561M)” value in test [9] was found to be 2.35%. Moreover, the “%-inhibition, BRAF” value in [10] is -3.28%. In [11], the “%-inhibition, BRAF(V600E)” value was found to be 3.36%. In addition, the “%-inhibition of KDR” value in test [14] is on record as 1.78%. Further, in test [15], the “%-inhibition of TYRO3” value is listed as -1.23%. In test [13] (setting [18]), the “%-inhibition, ALK(R1275Q)” value is listed as -1.83%.

With `CS(=O)(=O)CCNCc1ccc(-c2ccc3ncnc(Nc4ccc(OCc5cccc(F)c5)c(Cl)c4)c3c2)o1` [lapatinib], the “%-inhibition, ABL” value in test [1] (kinase ABL, 1 μM compound) turned out to be 17%. Further, the “%-inhibition, ABL(E255K)” value in test [2] (setting [16]) is listed as -4.67%. Further, the “%-inhibition of PDGFRβ” value in test [8] is listed as 2.84%. Besides, the “%-inhibition of TYRO3” value in [15] is listed as 13%. Besides, the “%-inhibition of RSK1” value in test [12] stood at 2.59%.

`CNC(=O)c1cc(Oc2ccc(NC(=O)Nc3ccc(Cl)c(C(F)(F)F)c3)c(F)c2)ccn1` [regorafenib]: the “%-inhibition, ABL” value in test [1] (kinase ABL, 1 μM compound) is given as 68%. For the same molecule, the “%-inhibition, ABL(E255K)” value in test [2] (setting [16]) is on record as 33%. Further, in [3], the “%-inhibition of EGFR” value worked out at 12%. Moreover, the “%-inhibition of EGFR(L858R)” value in test [4] was 2.24%. For the same molecule, the “%-inhibition of EGFR(T790M/L858R)” value in test [5] was found to be 1.68%. The “%-inhibition of EGFR(T790M)” value in test [6] was -7.38%. Moreover, the “%-inhibition of YES(T348I)” value in test [7] (setting [17]) is reported as 40%. Besides, the “%-inhibition of KDR” value in test [14] was 103%. In test [15], the “%-inhibition of TYRO3” value is reported as 34%. For the same molecule, the “%-inhibition of RSK1” value in test [12] is 0.165%. In test [13] (setting [18]), the “%-inhibition, ALK(R1275Q)” value is on record as 5%.

Turning to `N#CC[C@H](C1CCCC1)n1cc(-c2ncnc3[nH]ccc23)cn1` [ruxolitinib], the “%-inhibition, ABL” value in test [1] (1 µM) came to 5%. The “%-inhibition, ABL(E255K)” value in [2] (1 µM) amounted to 0.0579%. Besides, the “%-inhibition of EGFR” value in test [3] is given as -0.278%. The “%-inhibition of EGFR(L858R)” value in test [4] is reported as -4%. The “%-inhibition of EGFR(T790M/L858R)” value in test [5] is on record as -0.336%. The “%-inhibition of EGFR(T790M)” value in [6] is listed as -8%. Besides, in test [7] (1 µM), the “%-inhibition of YES(T348I)” value worked out at 5%. Further, in test [9], the “%-inhibition of FGFR1(V561M)” value was 50%. In addition, the “%-inhibition, BRAF” value in test [10] was determined as 14%. The “%-inhibition, BRAF(V600E)” value in test [11] turned out to be 6%. Further, the “%-inhibition of KDR” value in test [14] came to 6.52%. In addition, the “%-inhibition of TYRO3” value in test [15] is -3%. In [12], the “%-inhibition of RSK1” value turned out to be 1.49%. In test [13] (1 µM), the “%-inhibition, ALK(R1275Q)” value is on record as 49%.

With `CCCS(=O)(=O)Nc1ccc(F)c(C(=O)c2c[nH]c3ncc(-c4ccc(Cl)cc4)cc23)c1F` [vemurafenib], the “%-inhibition, ABL” value in test [1] (kinase ABL, 1 μM compound) was determined as 15%. Besides, the “%-inhibition, ABL(E255K)” value in test [2] (setting [16]) was 2.49%. For the same molecule, the “%-inhibition of EGFR” value in [3] is recorded as 7%. Also, the “%-inhibition of EGFR(L858R)” value in test [4] is 0.505%. In addition, the “%-inhibition of EGFR(T790M/L858R)” value in test [5] came out at 5%. Moreover, the “%-inhibition of EGFR(T790M)” value in test [6] is -5.57%. Further, in test [7] (setting [17]), the “%-inhibition of YES(T348I)” value was 4%. In test [8], the “%-inhibition of PDGFRβ” value came to 33%. In addition, the “%-inhibition of FGFR1(V561M)” value in test [9] is listed as 5.37%. Also, in test [10], the “%-inhibition, BRAF” value is listed as 99%. In addition, in test [14], the “%-inhibition of KDR” value is recorded as 13%. Further, the “%-inhibition of TYRO3” value in test [15] was 3.16%. For the same molecule, the “%-inhibition of RSK1” value in test [12] is recorded as -1.32%. The “%-inhibition, ALK(R1275Q)” value in test [13] (setting [18]) is reported as 3.57%.

The values are drawn from paper PMC3961306, “Comparison of the Cancer Gene Targeting and Biochemical Selectivities of All Targeted Kinase Inhibitors Approved for Clinical Use” (PLoS ONE, 2014).
